Reference: ChEMBL document CHEMBL1131346, “A free energy calculation can be used to predict K(+)-binding constants for new macrotetrolide antibiotics” (Bioorg Med Chem Lett, 1998)

Assay: Compound was evaluated for K+ ion binding affinity to macrocycle of macrotetrolides

C[C@@H]1C[C@H]2CC[C@H](O2)[C@H](C)C(=O)O[C@@H](C)C[C@@H]2CC[C@@H](O2)[C@@H](C)C(=O)O[C@H](C)C[C@H]2CC[C@@H](O2)[C@H](C)C(=O)O[C@@H](C)C[C@@H]2CC[C@@H](O2)[C@@H](C)C(=O)O1
Log K: 3.88

CC[C@H]1C[C@@H]2CC[C@@H](O2)[C@@H](C)C(=O)O[C@H](C)C[C@H]2CC[C@H](O2)[C@H](C)C(=O)O[C@@H](C)C[C@@H]2CC[C@@H](O2)[C@@H](C)C(=O)O[C@H](C)C[C@H]2CC[C@H](O2)[C@H](C)C(=O)O1
Log K: 4.4

CC[C@H]1C[C@@H]2CC[C@@H](O2)[C@@H](C)C(=O)O[C@H](C)C[C@H]2CC[C@H](O2)[C@H](C)C(=O)O[C@@H](CC)C[C@@H]2CC[C@@H](O2)[C@@H](C)C(=O)O[C@H](C)C[C@H]2CC[C@H](O2)[C@H](C)C(=O)O1
Log K: 4.73
